According to US9399032B2, “Methods and compositions for treating degenerative and ischemic disorders” (The General Hospital Corporation, priority 2009, dated 2016):
Structures can show the parent of a compound that is named as a salt.

Test system: MCH58 fibroblasts
Experiment: Mass spectrometry-based metabolite profiling
Format: cell-based, human
Method: Metabolite profiling was performed on MCH58 fibroblasts following treatment with 50 μM meclizine or vehicle control for six hours, using methods similar to those previously described, see […] et al., Mol Syst Biol 4:214 (2008). […] For assessment of media metabolites, 500 μl of spent media or baseline media (prior to addition to cells) were sampled from the culture dish and immediately added to 500 μl of pre-cooled (-80° C.) methanol extraction solution (80% methanol, 20% H2O) to allow for rapid quenching of metabolism and extraction of metabolites. After 20 minutes at 4° C., samples were centrifuged at 14,000 g for 10 minutes. 50 μl of the supernatant was collected, re-diluted 1:20 with methanol extraction solution, and 100 μl of the final solution evaporated under nitrogen. Samples were reconstituted in 60 μl of HPLC-grade water and metabolite levels determined, as described below. For assessment of intracellular metabolites, media was aspirated from the above tissue culture plates and cells gently washed with 4 mL of PBS, to ensure complete removal of residual media metabolites. The PBS was removed and cellular metabolism quenched with immediate addition of 1 mL of pre-cooled (-80° C.) methanol extraction solution (80% methanol, 20% H2O). Cells were scraped, collected in extraction solution, vortexed and the samples centrifuged as described above for preparation of media samples. 100 μl of the supernatant was collected, re-diluted 1:1 with methanol extraction solution, and 100 μl of the final solution evaporated under nitrogen. Samples were reconstituted in 60 μl of HPLC-grade water and metabolites assessed. Six biological replicates were assessed for each group. Analyses of endogenous metabolites were performed using a liquid chromatography tandem mass spectrometry (LC-MS) system composed of a 4000 QTRAP triple quadrupole mass spectrometer (Applied Biosystems/SCIEX) coupled to three Agilent 1100 binary HPLC pumps (Agilent Technologies) and an HTS PAL autosampler (LEAP Technologies) equipped with three injection ports and a column selector valve. Three multiplexed chromatographic methods were configured for the analyses of each sample: LC method 1 used a Luna Phenyl-Hexyl column (Phenomenex) eluted with a linear gradient of water/acetonitrile/acetic acid (initial proportions 100/0/0.001, final proportions 10/90/0.001); […] LC method 3 used a Synergi Polar-RP column (Phenomenex) with reversed phase, gradient elution using 5% acetonitrile/5 mM ammonium acetate (mobile phase A) and 95% acetonitrile/5 mM ammonium acetate (mobile phase B). MS data were acquired using multiple reaction monitoring (MRM) in both the positive (LC method 1) and negative (LC methods 2 and 3) ion modes. During the development of this method, authentic reference compounds were used to determine LC retention times and to tune MRM transitions. Metabolite quantification was performed by integrating peak areas for specific MRM transitions using MultiQuant software (version 1.1; Applied Biosystems/SCIEX) and all integrated peaks were manually reviewed for quality. Extraction and quantification procedures were optimized prior to assessment of samples in this study to ensure measured intracellular and media metabolites were within the linear range of detection. Confirmation of the phosphoethanolamine peak was performed using an exogenous phosphoethanolamine standard (Sigma P0503).

[1] = intracellular, 50 μM, 6 h, over DMSO

Cc1cccc(CN2CCN(C(c3ccccc3)c3ccc(Cl)cc3)CC2)c1 (racemic) [Meclizine, meclizine hydrochloride]
Fold Change P1_M0003_2′-deoxycytidine [1]: 1.13 | Fold Change P1_M0007_Acetylcholine_p2_Met-146 [1]: 1.06 | Fold Change P1_M0008_Alanine [1]: 1.40 | Fold Change P1_M0009_Allantoin [1]: 0.91 | Fold Change P1_M0012_Arginine [1]: 1.01 | Fold Change P1_M0013_Argininosuccinate [1]: 1.08 | Fold Change P1_M0014_Asparagine [1]: 2.43 | Fold Change P1_M0015_Aspartate [1]: 1.25 | Fold Change P1_M0016_Betaine [1]: 1.08 | Fold Change P1_M0018_Carnosine [1]: 1.00 | Fold Change P1_M0019_Choline [1]: 0.90 | Fold Change P1_M0022_Creatine [1]: 1.47 | Fold Change P1_M0023_Creatinine [1]: 1.03 | Fold Change P1_M0026_Cysteine [1]: 1.38 | Fold Change P1_M0027_Cytidine [1]: 1.28 | Fold Change P1_M0030_DimethylGlycine [1]: 0.98 | Fold Change P1_M0034_GlutamicAcid_p2 [1]: 1.16 | Fold Change P1_M0035_Glutamine [1]: 1.05 | Fold Change P1_M0038_Histidine [1]: 1.07 | Fold Change P1_M0039_Homocysteine [1]: 0.95 | Fold Change P1_M0040_Homoserine [1]: 1.14 | Fold Change P1_M0041_Hydroxyproline [1]: 1.17 | Fold Change P1_M0042/M0044_Ile/Leu [1]: 0.91 | Fold Change P1_M0045_Lysine [1]: 1.08 | Fold Change P1_M0046_Metanephrine_p2 [1]: 0.87 | Fold Change P1_M0047_Methionine [1]: 1.06 | Fold Change P1_M0050_Niacinamide [1]: 1.08 | Fold Change P1_M0052_Ornithine [1]: 1.01 | Fold Change P1_M0053_Phenylalanine [1]: 1.09 | Fold Change P1_M0054_Phosphoethanolamine [1]: 38.21 | Fold Change P1_M0055_Proline [1]: 1.28 | Fold Change P1_M0056_Pyridoxine [1]: 1.15 | Fold Change P1_M0058_Serine [1]: 1.11 | Fold Change P1_M0062_Taurine [1]: 1.59 | Fold Change P1_M0063_Threonine [1]: 1.14 | Fold Change P1_M0066_Tryptophan [1]: 1.13 | Fold Change P1_M0067_Tyrosine [1]: 1.18 | Fold Change P1_M0068/M0037_Valine/GuanidinoaceticAcid [1]: 0.94 | Fold Change P1_M0070_Xanthosine [1]: 1.21 | Fold Change P1_M0142_Thymidine [1]: 0.97 | Fold Change P1_M0200_L-NMMA [1]: 0.59 | Fold Change P1_M0201/M0202_ADMA/SDMA [1]: 0.99 | Fold Change P1_M0204_Glycerol [1]: 0.94 | Fold Change P1_NM001-M68_Valine-d8 [1]: 1.01 | Fold Change P3_M0077_Acetoacetate [1]: 1.07 | Fold Change P3_M0081_ADP_p2 [1]: 1.43 | Fold Change P3_M0082_AMP [1]: 1.31 | Fold Change P3_M0100_FolicAcid [1]: 0.63 | Fold Change P3_M0102/M0103/M0196_F16DiP/F26DiP/G16DiP_D79_p2 [1]: 1.32 | Fold Change P3_M0104-M0107_F1P/F6P/G1P/G6P_D97 [1]: 0.97 | Fold Change P3_M0109-M0110_Glucose/Galactose [1]: 0.94 | Fold Change P3_M0111_GlutathioneOxidized [1]: 1.20 | Fold Change P3_M0112_GlutathioneReduced [1]: 1.74 | Fold Change P3_M0113_Glyceraldehyde [1]: 1.00 | Fold Change P3_M0114_Glycerol-3-P [1]: 1.21 | Fold Change P3_M0121_Hypoxanthine [1]: 1.17 | Fold Change P3_M0126_LacticAcid [1]: 0.99 | Fold Change P3_M0127_Lactose [1]: 0.42 | Fold Change P3_M0129_NAD [1]: 1.11 | Fold Change P3_M0130_NADP [1]: 1.24 | Fold Change P3_M0139_Sorbitol [1]: 0.92 | Fold Change P3_M0140_Sucrose [1]: 1.18 | Fold Change P3_M0145/M0146_UDP-Glucose/UDP-Galactose_p2 [1]: 1.33 | Fold Change P3_M0147_UDP-GlucuronicAcid [1]: 1.45 | Fold Change P3_M0149_Uracil [1]: 0.90 | Fold Change P3_M0150_Uridine [1]: 0.88 | Fold Change P3_M0152_Xanthine [1]: 0.85 | Fold Change P3_M0154_Methylmalonate [1]: 0.86 | Fold Change P3_M0164/M0175_FumaricAcid/MaleicAcid [1]: 1.07 | Fold Change P3_M0195_3-PhosphoglycericAcid [1]: 1.45 | Fold Change P3_NM002-M109_Glucose-13C6-d7 [1]: 1.02 | Fold Change P3_NM003-M161_CitricAcid-d4 [1]: 0.97 | Fold Change P4_CAP193_Met-165 [1]: 0.90 | Fold Change P4_M0083_ATP_D159 [1]: 1.27 | Fold Change P4_M0088_CMP [1]: 1.27 | Fold Change P4_M0089_CTP [1]: 1.32 | Fold Change P4_M0090_Cystathionine [1]: 1.53 | Fold Change P4_M0091_DCDP [1]: 1.09 | Fold Change P4_M0092_DCMP [1]: 1.17 | Fold Change P4_M0093_DCTP [1]: 1.02 | Fold Change P4_M0097_DUMP [1]: 0.88 | Fold Change P4_M0100_FolicAcid [1]: 0.84 | Fold Change P4_M0102/M0103/M0196_F16DiP/F26DiP/G16DiP_D79_p1 [1]: 1.14 | Fold Change P4_M0102/M0103/M0196_F16DiP/F26DiP/G16DiP_D241 [1]: 1.07 | Fold Change P4_M0108_GDP_p1 [1]: 1.38 | Fold Change P4_M0116_GTP [1]: 1.24 | Fold Change P4_M0121_Hypoxanthine [1]: 0.76 | Fold Change P4_M0123_Inosine_p2 [1]: 1.18 | Fold Change P4_M0126_LacticAcid [1]: 0.96 | Fold Change P4_M0137/M0138_Ribose-5-P/Ribulose-5-P_D97 [1]: 1.07 | Fold Change P4_M0140_Sucrose [1]: 1.10 | Fold Change P4_M0144_UDP [1]: 1.21 | Fold Change P4_M0148_UMP_p1 [1]: 0.83 | Fold Change P4_M0151_UTP [1]: 1.09 | Fold Change P4_M0157/M0156_Alpha-Keto-Glutarate/AdipicAcid [1]: 1.06 | Fold Change P4_M0158_AscorbicAcid [1]: 0.96 | Fold Change P4_M0159_CDP [1]: 1.52 | Fold Change P4_M0161/M0172_CitricAcid/IsocitricAcid [1]: 0.66 | Fold Change P4_M0162_Citrulline [1]: 0.87 | Fold Change P4_M0163_DHAP [1]: 0.98 | Fold Change P4_M0164/M0175_FumaricAcid/MaleicAcid [1]: 0.94 | Fold Change P4_M0165_GeranylPyrophosphate [1]: 1.18 | Fold Change P4_M0166_Glucuronate [1]: 0.77 | Fold Change P4_M0167_Glycerate-2-P_p1_Met-185 [1]: 1.09 | Fold Change P4_M0168_GlycochenodeoxycholicAcid [1]: 0.83 | Fold Change P4_M0169_GlycocholicAcid [1]: 0.68 | Fold Change P4_M0170_HippuricAcid [1]: 0.86 | Fold Change P4_M0173_Kynurenine [1]: 0.96 | Fold Change P4_M0176_MalicAcid [1]: 0.96 | Fold Change P4_M0180_OH-PhenylPyruvate [1]: 0.86 | Fold Change P4_M0183_Oxaloacetate [1]: 0.92 | Fold Change P4_M0184_PantothenicAcid [1]: 1.29 | Fold Change P4_M0185_Pyridoxal-5-phosphate_p1 [1]: 1.01 | Fold Change P4_M0187_SuccinicAcid [1]: 0.83 | Fold Change P4_M0188_TaurochenodeoxycholicAcid [1]: 0.76 | Fold Change P4_M0190_UricAcid [1]: 0.87 | Fold Change P4_M0191_Xanthosine-5′-monophosphate [1]: 1.75 | Fold Change P4_M0198_AconiticAcid(CAP203)_D129 [1]: 0.55 | Fold Change P4_M0205_PhosphoTyrosine [1]: 1.23 | Fold Change P4_M0206_Acetyl-CoA_P404 [1]: 1.22 | Fold Change P4_M0207_Malonyl-CoA_p1 [1]: 1.16 | Fold Change P4_M0210_Pyruvate [1]: 1.08 | Fold Change P4_NM002-M109_Glucose-13C6-d7 [1]: 1.15 | Fold Change P4_NM003-M161_CitricAcid-d4_p1 [1]: 1.02 | increase of intracellular phosphoethanolamine (six hours after treatment): ~35 fold
